From patent US4906565A, “Method for the selective detection of microbial nucleotides” (Minnesota Mining and Manufacturing Company, priority 1986, dated 1990)
“And” between values parts separate entries of the source, which are not always exact repeats. Equal values may be shown once.

Key:
Assay type in all cases: biochemical
firefly luciferase [1] = target: T1, firefly luciferase (Photinus pyralis, UniProt P08659); experiment: Effect of inhibitor on the bioluminescent assay of ATP
T1 construct: purchased Lumac/3M Lumit PM
T1 sequence (P08659 whole entry): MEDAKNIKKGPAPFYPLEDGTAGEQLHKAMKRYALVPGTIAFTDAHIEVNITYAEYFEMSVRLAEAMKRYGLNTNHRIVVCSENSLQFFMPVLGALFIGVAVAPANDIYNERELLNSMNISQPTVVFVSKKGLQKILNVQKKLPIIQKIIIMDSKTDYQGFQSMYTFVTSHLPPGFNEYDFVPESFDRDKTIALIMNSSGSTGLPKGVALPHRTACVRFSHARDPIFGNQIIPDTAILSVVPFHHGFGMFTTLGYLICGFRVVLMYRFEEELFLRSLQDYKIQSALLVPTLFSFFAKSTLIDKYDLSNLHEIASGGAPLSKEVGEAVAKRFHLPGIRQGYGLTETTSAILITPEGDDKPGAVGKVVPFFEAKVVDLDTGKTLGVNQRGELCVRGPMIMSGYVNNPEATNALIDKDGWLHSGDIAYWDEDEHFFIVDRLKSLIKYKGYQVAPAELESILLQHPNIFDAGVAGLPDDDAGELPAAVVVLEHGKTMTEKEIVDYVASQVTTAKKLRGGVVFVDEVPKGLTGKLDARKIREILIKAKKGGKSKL
Protocol: Assay: from each sample triplicate 100 μl aliquots were taken. In those aliquots ATP was measured as described.
Assay: from each sample triplicate 100 μl aliquots were taken. ATP in those aliquots was measured as described.
Assay: From each sample triplicate 100 μl aliquots were taken and ATP was measured as described.
Protocol: Eight samples were prepared using materials described above and previously, as shown in TABLE 7-1 and incubated for various periods of time (i.e., 0, 5, 10 and […]) before aliquots were taken and assayed as described.
Protocol: Increasing concentrations of hexokinase, with and without PCMPSA were prepared according to TABLE 8-1 using materials described above and previously.

firefly luciferase [2] = target: T1, firefly luciferase; experiment: as above; conditions: for RLU mean / RLU, triplicate aliquots 1, 2, 3: no kinase
glycerokinase = experiment: Inhibition of glycerokinase (protection of ATP), bioluminescent ATP assay in buffer; conditions: for RLU 5 min.: 5 min. after glycerol; for RLU 10 min.: 10 min. after glycerol; for RLU 15 min.: 15 min. after glycerol; for RLU 0 min.: before glycerol added
Protocol: Assay: Glycerol was added last to the samples to initiate the enzyme's activity. Before glycerol was added a 50 μl aliquot was taken from all samples. ATP levels in those aliquots (expressed in RLU) were determined as time zero values. Next glycerol was added to the mixtures and further 50 μl aliquots were taken at 5, 10, and 15 minutes. ATP in all aliquots was measured by bioluminescent means as described. Results:
(§1) Assay: Glycerol was added last to the samples to initiate the enzyme's activity. Before glycerol was added a 50 μl aliquot was taken from all samples as time zero. Next glycerol was added to the samples and after 5, 10 and 15 minutes, 50 μl aliquots were again taken. ATP in all aliquots was measured as described.
as §1, with “At” for “Next glycerol was added to the samples and after”, “minutes after addition of glycerol further” for “minutes,”, “taken from the samples.” for “again taken.”

[3] = PCMB 0.01 mM, ATP in buffer, no kinase
[4] = PCMB 0.01 mM, glycerokinase 1.6 U/ml
[5] = PCMB 0.05 mM, glycerokinase 1.6 U/ml
[6] = PCMB 0.1 mM, glycerokinase 1.6 U/ml
[7] = PCMB 0.5 mM, glycerokinase 1.6 U/ml
[8] = PCMB 1 mM, glycerokinase 1.6 U/ml
[9] = PCMB 2 mM, glycerokinase 1.6 U/ml
[10] = DNFB 0.0827 mM, ATP in Lumit buffer
[11] = DNFB 0.827 mM, ATP in Lumit buffer
[12] = DNFB 8.27 mM, ATP in Lumit buffer

## O=C(O)c1cc[c]([Hg][Cl])cc1 [PCMB, p-chloromercuribenzoic acid]
Firefly luciferase [1]; [3]
  RLU mean: 17887 RLU
  RLU, triplicate aliquots 1, 2, 3: 17959 RLU and 18219 RLU and 17484 RLU
Firefly luciferase [1]; PCMB 0.01 mM, control = 0 mM PCMB
  % of control: 97%
Firefly luciferase [1]; PCMB 0.01-1mM
  interference with the bioluminescent assay (conclusion in words): do not significantly interfere
Firefly luciferase [1]; PCMB 10 mM, ATP in buffer, no kinase
  RLU, triplicate aliquots 1, 2, 3: 11 RLU and 10 RLU
Firefly luciferase [2]; PCMB 0.05 mM, ATP in buffer
  RLU mean: 17508 RLU
  RLU, triplicate aliquots 1, 2, 3: 17984 RLU and 17423 RLU and 17118 RLU
Firefly luciferase [2]; PCMB 0.05 mM, control = 0 mM PCMB
  % of control: 95%
Firefly luciferase [2]; PCMB 0.1 mM, ATP in buffer
  RLU mean: 18246 RLU
  RLU, triplicate aliquots 1, 2, 3: 17914 RLU and 18720 RLU and 18505 RLU
Firefly luciferase [2]; PCMB 0.1 mM, control = 0 mM PCMB
  % of control: 99%
Firefly luciferase [2]; PCMB 0.5 mM, ATP in buffer
  RLU mean: 18142 RLU
  RLU, triplicate aliquots 1, 2, 3: 18190 RLU and 18413 RLU and 17824 RLU
Firefly luciferase [2]; PCMB 0.5 mM, control = 0 mM PCMB
  % of control: 99%
Firefly luciferase [2]; PCMB 1 mM, ATP in buffer
  RLU mean: 13696 RLU
  RLU, triplicate aliquots 1, 2, 3: 14576 RLU and 13556 RLU and 12956 RLU
Firefly luciferase [2]; PCMB 1 mM, control = 0 mM PCMB
  % of control: 75%
Firefly luciferase [2]; PCMB 5 mM, ATP in buffer
  RLU mean: 10 RLU
  RLU, triplicate aliquots 1, 2, 3: 11 RLU and 10 RLU and 9 RLU
Firefly luciferase [2]; PCMB 5 mM, control = 0 mM PCMB
  % of control: < 1%
Firefly luciferase [2]; PCMB 10 mM, ATP in buffer
  RLU mean: 10 RLU
Firefly luciferase [2]; PCMB 10 mM, control = 0 mM PCMB
  % of control: < 1%
glycerokinase; [4]
  RLU 5 min.: 9121 RLU
  RLU 10 min.: 8982 RLU
  RLU 15 min.: 3913 RLU
  RLU 0 min.: 9065 RLU
glycerokinase; [5]
  RLU 5 min.: 9048 RLU
  RLU 10 min.: 8727 RLU
  RLU 15 min.: 9049 RLU
  RLU 0 min.: 9003 RLU
glycerokinase; [6]
  RLU 5 min.: 9560 RLU
  RLU 10 min.: 9253 RLU
  RLU 15 min.: 9421 RLU
  RLU 0 min.: 9499 RLU
glycerokinase; [7]
  RLU 5 min.: 8800 RLU
  RLU 10 min.: 8617 RLU
  RLU 15 min.: 9028 RLU
  RLU 0 min.: 9041 RLU
glycerokinase; [8]
  RLU 5 min.: 9437 RLU
  RLU 10 min.: 9329 RLU
  RLU 15 min.: 9591 RLU
  RLU 0 min.: 8802 RLU
glycerokinase; [9]
  RLU 5 min.: 7245 RLU
  RLU 10 min.: 7905 RLU
  RLU 15 min.: 7568 RLU
  RLU 0 min.: 7987 RLU
glycerokinase; PCMB final concentration 0.01 mM
  inhibition of glycerokinase (conclusion in words): sufficiently inhibited
glycerokinase; PCMB, Samples 1-6 (0.01-2 mM)
  inhibition of glycerokinase (conclusion in words): very effective inhibitor of glycerokinase

## CCN1C(=O)C=CC1=O [NEM, N-ethylmaleimide]
Firefly luciferase [1]; NEM 19.8 mM, control = 0 mM NEM
  % of control: 86.3%
Firefly luciferase [2]; NEM 4.10 mM, ATP in buffer
  RLU mean: 14410 RLU
  RLU, triplicate aliquots 1, 2, 3: 14387 RLU and 14794 RLU and 14051 RLU
Firefly luciferase [2]; NEM 4.10 mM, control = 0 mM NEM
  % of control: 97.6%
Firefly luciferase [2]; NEM 8.14 mM, ATP in buffer
  RLU mean: 14608 RLU
  RLU, triplicate aliquots 1, 2, 3: 14401 RLU and 14667 RLU and 14756 RLU
Firefly luciferase [2]; NEM 8.14 mM, control = 0 mM NEM
  % of control: 99.0%
Firefly luciferase [2]; NEM 12.1 mM, ATP in buffer
  RLU mean: 13737 RLU
  RLU, triplicate aliquots 1, 2, 3: 14139 RLU and 13794 RLU and 13279 RLU
Firefly luciferase [2]; NEM 12.1 mM, control = 0 mM NEM
  % of control: 93.1%
Firefly luciferase [2]; NEM 16.0 mM, ATP in buffer
  RLU mean: 13212 RLU
  RLU, triplicate aliquots 1, 2, 3: 12750 RLU and 13438 RLU and 13448 RLU
Firefly luciferase [2]; NEM 16.0 mM, control = 0 mM NEM
  % of control: 89.5%
Firefly luciferase [2]; NEM 19.8 mM, ATP in buffer
  RLU mean: 12747 RLU
  RLU, triplicate aliquots 1, 2, 3: 13534 RLU and 12596 RLU and 12111 RLU
Firefly luciferase [2]; NEM .414 mM, ATP in buffer
  RLU mean: 14962 RLU
  RLU, triplicate aliquots 1, 2, 3: 15071 RLU and 15081 RLU and 14735 RLU
Firefly luciferase [2]; NEM .414 mM, control = 0 mM NEM
  % of control: 101.4%
Firefly luciferase [2]; NEM concentrations of Example 5
  interference with the bioluminescent assay of ATP (conclusion in words): interferes only moderately, if at all
glycerokinase; NEM 4.10 mM, glycerokinase
  RLU 5 min.: 7275 RLU
  RLU 10 min.: 6398 RLU
  RLU 15 min.: 5922 RLU
  RLU 0 min.: 7635 RLU
glycerokinase; NEM 8.14 mM, glycerokinase
  RLU 5 min.: 7130 RLU
  RLU 10 min.: 6623 RLU
  RLU 15 min.: 6365 RLU
  RLU 0 min.: 7742 RLU
glycerokinase; NEM 12.1 mM, glycerokinase
  RLU 5 min.: 7413 RLU
  RLU 10 min.: 6812 RLU
  RLU 15 min.: 6997 RLU
  RLU 0 min.: 7660 RLU
glycerokinase; NEM 19.8 mM, glycerokinase
  RLU 5 min.: 7138 RLU
  RLU 10 min.: 6547 RLU
  RLU 15 min.: 6820 RLU
  RLU 0 min.: 7406 RLU
glycerokinase; NEM 16. mM, glycerokinase
  RLU 5 min.: 7192 RLU
  RLU 10 min.: 7002 RLU
  RLU 15 min.: 6962 RLU
  RLU 0 min.: 7199 RLU
glycerokinase; each NEM concentration tested (4.10-19.8 mM)
  inhibition of glycerokinase (conclusion in words): seems to be inhibited

## O=[N+]([O-])c1ccc(F)c([N+](=O)[O-])c1 [DNFB]
Firefly luciferase [1]; DNFB 0.0827 mM, control = ethanol, 0 mM DNFB
  % of control: 106%
Firefly luciferase [1]; DNFB concentrations of Example 3
  interference with the bioluminescent assay of ATP by firefly luciferase (conclusion in words): does not interfere
Firefly luciferase [2]; [10]
  RLU mean: 15429 RLU
  RLU, triplicate aliquots 1, 2, 3: 15157 RLU and 15625 RLU and 15507 RLU
Firefly luciferase [2]; [11]
  RLU mean: 15914 RLU
  RLU, triplicate aliquots 1, 2, 3: 16060 RLU and 15753 RLU and 15929 RLU
Firefly luciferase [2]; DNFB 0.827 mM, control = ethanol, 0 mM DNFB
  % of control: 110%
Firefly luciferase [2]; [12]
  RLU mean: 14784 RLU
  RLU, triplicate aliquots 1, 2, 3: 14498 RLU and 14780 RLU and 15076 RLU
Firefly luciferase [2]; DNFB 8.27 mM, control = ethanol, 0 mM DNFB
  % of control: 102.2%
glycerokinase; 0.0827 mM DNFB
  inhibition of glycerokinase (conclusion in words): not effectively inhibited
glycerokinase; 0.27 mM DNFB (so in the source)
  inhibition of glycerokinase (conclusion in words): effectively inhibited
glycerokinase; 8.27 mM DNFB (so in the source)
  inhibition of glycerokinase (conclusion in words): moderately inhibited
glycerokinase; DNFB 0.0827 mM, glycerokinase
  RLU 5 min.: 11 RLU
  RLU 10 min.: 11 RLU
  RLU 15 min.: 18 RLU
  RLU 0 min.: 7025 RLU
glycerokinase; DNFB 0.827 mM, glycerokinase
  RLU 5 min.: 1585 RLU
  RLU 10 min.: 1498 RLU
  RLU 15 min.: 1618 RLU
  RLU 0 min.: 7402 RLU
glycerokinase; DNFB 8.27 mM, glycerokinase
  RLU 5 min.: 7785 RLU
  RLU 10 min.: 7965 RLU
  RLU 15 min.: 7968 RLU
  RLU 0 min.: 8002 RLU
